US9902739B2, “Small molecule inhibitors of G protein coupled receptor 6 kinases polypeptides” (Mayo Foundation for Medical Education and Research, priority 2014, dated 2018)

Target: T1, GRK6, recombinant full-length GST-tagged human protein (Homo sapiens, UniProt P43250)
T1 construct: Enzyme: 20 nM GRK6, recombinant full-length GST-tagged human protein; GST
Test: GRK6 assay, IC50 determination (8-point concentration-response)
Format: biochemical
Conditions: Series 3 (Table 13); conditions as Example 18
Procedure: The following assay conditions were used.
Buffer: 50 mM TRIS-HCl, pH 7.5, 5 mM MgCl2, 2 mM DTT, 0.01% Triton X-100, 10 μM Na3VO4, 10 μM b-GP, 1% DMSO
Enzyme: 20 nM GRK6, recombinant full-length GST-tagged human protein
Peptide substrate (Peptide 216): 1 μM
One hundred two compounds (1-1-1-102) were further characterized by determining IC50 values in a GRK6 assay. This screen has been previously described in WO 2013/063458, which is incorporated by reference in its entirety herein. Briefly, the following activities were performed: 8-point concentration-response determinations in singlicate wells (top concentration=60 μM, 3-fold dilution steps); Repeat tests for QC failed or inconclusive compounds; and Repeat tests (titrate down) for compounds with >50% inhibition at all tested concentrations.
Twelve compounds (2-1-2-12) were further characterized by determining the IC50 values in a GRK6 assay. This screen has been previously described in WO 2013/063458, which is incorporated by reference in its entirety herein. Specific activities were performed as described above (Example 18).
Thirty-six compounds (3-1-3-36) were further characterized by determining the IC50 values in a GRK6 assay. This screen has been previously described in WO 2013/063458, which is incorporated by reference in its entirety herein. Specific activities were performed as described above (Example 18).
Fifty-four compounds (4-1-4-54) were further characterized by determining the IC50 values in a GRK6 assay. This screen has been previously described in WO 2013/063458, which is incorporated by reference in its entirety herein. Specific activities were performed as described above (Example 18).

T1 sequence (P43250 whole entry): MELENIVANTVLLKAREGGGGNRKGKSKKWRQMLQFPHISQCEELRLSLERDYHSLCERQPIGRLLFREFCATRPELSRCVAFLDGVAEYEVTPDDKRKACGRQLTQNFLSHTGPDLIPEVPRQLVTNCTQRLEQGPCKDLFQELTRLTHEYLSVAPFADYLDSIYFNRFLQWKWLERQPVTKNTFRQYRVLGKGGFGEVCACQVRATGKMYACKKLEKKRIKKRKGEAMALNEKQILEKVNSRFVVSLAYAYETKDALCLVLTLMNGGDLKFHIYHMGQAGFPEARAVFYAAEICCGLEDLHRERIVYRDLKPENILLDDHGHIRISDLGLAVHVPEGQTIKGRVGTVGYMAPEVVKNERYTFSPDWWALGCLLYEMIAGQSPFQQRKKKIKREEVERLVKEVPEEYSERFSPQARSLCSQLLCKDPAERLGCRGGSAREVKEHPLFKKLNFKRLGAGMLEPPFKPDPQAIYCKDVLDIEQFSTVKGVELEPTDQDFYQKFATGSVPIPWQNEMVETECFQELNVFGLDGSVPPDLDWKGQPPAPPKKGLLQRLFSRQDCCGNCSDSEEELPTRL

| SMILES | IC50 [µM] |
| --- | --- |
| c1ccc(-c2ccc(-c3nnc(SCc4nnn[nH]4)[nH]3)o2)cc1 [Compound 3-28] | 6.21 |
| Fc1ccc(-c2ccc(-c3nnc(SCc4nnn[nH]4)[nH]3)o2)cc1F [Compound 3-29] | 6.9 |
| CNS(=O)(=O)c1cccc(-c2ccc(-c3nnc(SCc4nnn[nH]4)[nH]3)o2)c1 [Compound 3-30] | 7.16 |
| CS(=O)(=O)c1cccc(-c2ccc(-c3nnc(SCc4nnn[nH]4)[nH]3)o2)c1 [Compound 3-31] | 7.45 |
| c1cncc(-c2ccc(-c3nnc(SCc4nnn[nH]4)[nH]3)o2)c1 [Compound 3-32] | 8.63 |
| N#Cc1ccc(-c2ccc(-c3nnc(SCc4nnn[nH]4)[nH]3)o2)cc1 [Compound 3-33] | 8.91 |
| CN(C)S(=O)(=O)c1cccc(-c2ccc(-c3nnc(SCc4nnn[nH]4)[nH]3)o2)c1 [Compound 3-34] | 9.09 |
| Cc1cccc(-c2nnc(SCc3nnn[nH]3)[nH]2)c1 [Compound 3-35, 5-(((5-(m-tolyl)-1H-1,2,4-triazol-3-yl)thio)methyl)-1H-tetrazole] | 16.9 |
| O=[N+]([O-])c1cc(-c2ccccc2)cc(-c2nnc(SCc3nnn[nH]3)[nH]2)c1 [Compound 3-36] | 9.05 |

Same assay, conditions: Series 4 (Table 14); conditions as Example 18

| SMILES | IC50 [µM] |
| --- | --- |
| O=C(O)CSc1nnc(-c2ccc(-c3cc(Cl)cc(Cl)c3)s2)[nH]1 [Compound 4-1] | 0.595 |
| O=C(O)CSc1nnc(-c2cnc3cc(OCc4ccccc4)ccc3c2)[nH]1 [Compound 4-2] | 0.78 |
| O=C(O)CSc1nnc(-c2cnn(-c3ccccc3)c2)[nH]1 [Compound 4-3] | 1.01 |
| O=C(O)CSc1nnc(-c2cnc3ccccc3c2)[nH]1 [Compound 4-4] | 1.12 |
| O=C(O)CSc1nnc(-c2ccc(-c3ccccc3)s2)[nH]1 [Compound 4-5] | 1.27 |
| O=C(O)CSc1nnc(-c2cnn(-c3cccc(Cl)c3)c2)[nH]1 [Compound 4-6, 2-((5-(1-(3-chlorophenyl)-1H-pyrazol-4-yl)-4H-1,2,4-triazol-3-yl)thio)acetic acid] | 2.01 |
| O=C(O)CSc1nnc(-c2csc3ccccc23)[nH]1 [Compound 4-7] | 2.56 |
| O=C(O)CSc1nnc(-c2cc3ccccc3s2)[nH]1 [Compound 4-8] | 2.58 |
| Cc1ccc2sc(-c3nnc(SCC(=O)O)[nH]3)cc2c1 [Compound 4-9] | 2.61 |
| O=C(O)CSc1nnc(-c2ccc(-c3ccc4ccccc4c3)s2)[nH]1 [Compound 4-10] | 2.98 |
| O=C(O)CSc1nnc(-c2cnc(-c3ccccc3)s2)[nH]1 [Compound 4-11] | 3.64 |
| O=C(O)CSc1nnc(-c2cncc(Br)c2)[nH]1 [Compound 4-12] | 4.11 |
| Nc1ncc(-c2nnc(SCC(=O)O)[nH]2)s1 [Compound 4-13] | 4.64 |
| Cn1ncc(-c2nnc(SCC(=O)O)[nH]2)c1-c1ccccc1 [Compound 4-14] | 5.7 |
| O=C(O)CSc1nnc(-c2c[nH]nc2-c2ccccc2)[nH]1 [Compound 4-15] | 6.29 |
| O=C(O)CSc1nnc(-c2ccc(-c3ccccn3)s2)[nH]1 [Compound 4-16] | 6.54 |
| CN(C)c1ncc(-c2nnc(SCC(=O)O)[nH]2)cn1 [Compound 4-17] | 7.1 |
| Cn1nc(C(F)(F)F)cc1-c1ccc(-c2nnc(SCC(=O)O)[nH]2)s1 [Compound 4-18] | 7.41 |
| CCc1n[nH]cc1-c1nnc(SCC(=O)O)[nH]1 [Compound 4-19] | 8.96 |
| O=C(O)CSc1nnc(-c2ccc(Oc3ccccc3)nc2)[nH]1 [Compound 4-20] | 9.21 |
| Nc1ncc(-c2nnc(SCC(=O)O)[nH]2)cn1 [Compound 4-21] | 9.61 |
| O=C(O)CSc1nnc(-c2ccc(N3CCOCC3)nc2)[nH]1 [Compound 4-22] | 11.3 |
| O=C(O)CSc1nnc(-c2[nH]ncc2Br)[nH]1 [Compound 4-23] | 12.3 |
| COc1cncc(-c2nnc(SCC(=O)O)[nH]2)c1 [Compound 4-24] | 12.9 |
| O=C(O)CSc1nnc(-c2ccc3ccccc3n2)[nH]1 [Compound 4-25] | 13 |
| COc1ccc(-c2nnc(SCC(=O)O)[nH]2)cn1 [Compound 4-26] | 13 |

Now from value to compound:

| IC50 [µM] | SMILES |
| --- | --- |
| 20.7 | COc1ccc2c(-c3nnc(SCC(=O)O)[nH]3)c[nH]c2c1 [Compound 4-27] |
| 22.3 | O=C(O)CSc1nnc(-c2csnn2)[nH]1 [Compound 4-28] |
| 27.3 | Cc1csc2sc(-c3nnc(SCC(=O)O)[nH]3)c(C)c12 [Compound 4-29] |
| 27.8 | Cc1ncc(-c2nnc(SCC(=O)O)[nH]2)cn1 [Compound 4-30] |
| 31.2 | CSc1nc(-c2nnc(SCC(=O)O)[nH]2)ccc1C#N [Compound 4-31] |
| 32.5 | COc1cccc(-c2nnc(SCC(=O)O)[nH]2)n1 [Compound 4-32] |
| 35.3 | O=C(O)CSc1nnc(-c2ccc(Cl)cn2)[nH]1 [Compound 4-33] |
| 38.8 | Cn1c(-c2nnc(SCC(=O)O)[nH]2)cc2ccccc21 [Compound 4-34] |
| 78.7 | O=C(O)CSc1nnc(-c2ccc(F)cn2)[nH]1 [Compound 4-35] |
| 82.7 | CCc1nc(C)c(-c2nnc(SCC(=O)O)[nH]2)[nH]1 [Compound 4-36] |
| 89.2 | Cn1cc(Cl)c(-c2nnc(SCC(=O)O)[nH]2)n1 [Compound 4-37] |
| 95.4 | Cc1c(-c2nnc(SCC(=O)O)[nH]2)cnn1C [Compound 4-38] |
| > 100 | NC(=O)Cn1cc(-c2nnc(SCC(=O)O)[nH]2)c2ccccc21 [Compound 4-39] |
| > 100 | Cc1noc(C)c1-c1nnc(SCC(=O)O)[nH]1 [Compound 4-40] |
| > 100 | O=C(O)CSc1nnc(-c2cccnc2N2CCOCC2)[nH]1 [Compound 4-41] |
| > 100 | O=C(O)CSc1nnc(-c2cc3cccc4c3n(c2=O)CC4)[nH]1 [Compound 4-42] |
| > 100 | Cc1nc(C)c(-c2nnc(SCC(=O)O)[nH]2)s1 [Compound 4-43] |
| > 100 | O=C(O)CSc1nnc(-c2cccn2S(=O)(=O)c2ccccc2)[nH]1 [Compound 4-44] |
| > 86 | O=C(O)CSc1nnc(-c2ccc3cccnc3n2)[nH]1 [Compound 4-45] |
| > 80 | Cc1nc(-c2nnc(SCC(=O)O)[nH]2)c2ccccn12 [Compound 4-46] |
| > 64 | CC(C)(C)C(=O)Nc1ncccc1-c1nnc(SCC(=O)O)[nH]1 [Compound 4-47] |
| > 54 | O=C(O)CSc1nnc(-c2ccc(C(F)(F)F)nc2)[nH]1 [Compound 4-48] |
| > 100 | O=C(O)CSc1nnc(-c2c[nH]c3ccccc23)[nH]1 [Compound 4-49] |
| > 100 | Cc1nc[nH]c1-c1nnc(SCC(=O)O)[nH]1 [Compound 4-50] |
| > 100 | Cc1ncsc1-c1nnc(SCC(=O)O)[nH]1 [Compound 4-51] |
| > 100 | Cc1nc(-c2nnc(SCC(=O)O)[nH]2)c[nH]1 [Compound 4-52] |
| > 100 | COc1ccc2cc(-c3[nH]nc(SCC(=O)O)c3Br)ccc2c1 [Compound 4-53] |
